The values that follow are results of earlier work, collected in patent US6071521A, “Pharmaceutical composition having an antitumor activity and a process for preparation thereof” (priority 1989, dated 2000).

For the data set the following is noted: water, alcohol, chloroform, and chlorinated ethylene.

With `C=C1C=CC(=O)O1` [protoanemonin, Protoanemonin], the solubility entry is “dissolved in water, alcohol, chloroform, and chlorinated ethylene”.
